Assay results from patent US20240139220A1, “TREATMENT OF HPV INFECTION” (priority 2022, published 2024).
One block for each compound: values may come before it.

Experiments:
[1] = Approximate solubility in solvents at 25° C. and 50° C. by visual observation; assay type: physicochemical
Method: The maximum volume of each solvent added was 1 mL. Approximate solubility was determined by visual observation.
Maximum volume of each solvent added was 1 mL. Approximate solubility was determined by visual observation.

[2] = Bulk stability, accelerated storage for one week (HPLC, XRPD); assay type: physicochemical
Method: Bulk stability: Accelerated stability experiments were conducted at 25° C./92% RH and 40° C./75% RH in an open container, 60° C. in a tight container for one week.
Samples were characterized by XRPD and HPLC and inspected for color change.
Accelerated stability experiments were conducted at 25° C./92% RH in an open container, at 40° C./75% RH in an open container, and at 60° C. in a tight container for one week.

[3] = Solubility in buffers, water and simulated vaginal fluid at 37° C.; assay type: physicochemical
Method: About 4 mg of Compound I Pattern 1 was added into 2 mL of buffer solution.
(§1) Solubility was tested in five media, pH 3.0 citrate buffer, pH 4.5 acetate buffer, pH 6.8 phosphate buffer, water, simulated vaginal fluid (pH 4.2) at 37° C. for 0.5 h and 2 h.
The salt amount used is equivalent to 10 mg anhydrous free base. […] The obtained clear solutions were analyzed by pH meter for pH, and solubility was determined by observation.
as §1

[4] = Hygroscicity by Dynamic Vapor Sorption (DVS) at 25° C.; assay type: physicochemical
Method: Hygroscopicity was investigated by DVS at 25° C., using the following method: […]

[5] = Behavior under compression, grinding simulation and granulation simulation (XRPD); assay type: physicochemical
Method: About 10 mg of Compound I monofumarate Pattern 1 (Example 7) was compressed for 5 minutes at 10 MPa with a hydraulic press. XRPD characterization was performed to investigate the polymorphic behavior under compression.
About 10 mg of Compound I monofumarate Pattern 1 (Example 7) was ground manually with a mortar and pestle for 5 min. Form transformation and degree of crystallinity was evaluated by XRPD.
Water or ethanol was added drop wise to about 10 mg of Compound I monofumarate Pattern 1 (Example 7) until solids were wetted sufficiently. The samples were ground manually with a mortar and pestle for 3 minutes. Samples are dried under ambient condition for 10 min. Form transformation and degree of crystallinity were evaluated by XRPD.

[6] = Ex vivo permeation and penetration across porcine vaginal tissue (Franz diffusion cells, IVPT); assay type: in vitro ADME
Text: FIG. 116 is an in vitro tissue permeation test in vaginal tissue comparing Compound II to ABI-1968. […] Bars B and C show the tissue penetration of a 0.1% Compound II gel in […]. […] This may be a contributing factor to the performance of ABI-1968 in clinical studies. […] This is described in Example 41.
Freshly harvested porcine vaginal tissue was procured from local slaughterhouse in an ice box. The vaginal tissue was cut open to expose the mucosal surface and tissue was cleaned by gentle flow of PBS pH 7.4. The porcine vaginal tissue was cut into circular portions (approximately 2 cm^2) with help of a […] punch.
The circular portion of tissue was sandwiched between two chambers of a Franz diffusion cell with an active diffusion area of 1 cm^2, and the mucosal layer was exposed to the donor chambers. The resistance across porcine vaginal tissue was measured using a wave form generator to ensure the integrity of the tissue segment used for the permeation study. Porcine vaginal tissue with resistance of ≥3 KΩ.cm^2 was used for study. The receiver chamber was filled with 8 ml of 5% solutol PBS 7.4 pH, which was stirred at 600 rpm with a 3 mm magnetic stir bar and the temperature was maintained at 37° C. with a circulating water bath.
The ˜200 mg of gel was filled into tared 1 mL syringe and gel was dispensed to donor chamber. The gel was spread on to mucosal surface with pre weighed applicator. After loading and spreading of the gel onto surface of mucosal surface, the weight of 1 mL syringe and applicator was noted to determine the exact amount of gel loaded into donor chamber.
Time course (2 h, 4 h and 8 h) porcine vaginal permeation studies were performed. After loading gel, 500 μL samples were withdrawn from the receiver compartment at different time intervals and each time an equal volume of fresh receiver media was used to replace withdrawn samples. The sample withdrawn at each time interval were stored immediately in −20° C. until analysis. After 2, 4 and 8 h, the formulation was removed from the donor chamber with help of syringe and cleaned with cotton swab. The tissue was removed and washed gently with wash solution (50% methanol in water) 5 times and alternatively cleaning with cotton swab.
An 8 mm punch of active diffusion area of washed porcine vaginal tissue was removed, weighed and transferred into a tube. This tube was immediately placed into dry ice for ˜15 min. After specified time, tissue was removed and placed in precooled dish. The tissue was minced into smaller pieces on a dish with a precooled surgical blade. The minced tissue was transferred to sample tubes and dish was rinsed with 1 ml of 5% solutol in PBS 7.4 pH and transferred to same tissue sample tube. These tubes were stored in −70° C. until analysis.
The samples stored at −20° C. was removed and thawed at room temperature for 30 min. The drug from receptor fluid was centrifuged at 13000 rpm for 5 min and to 200 μL of supernatant equal volume of extraction solvent was added. These samples were centrifuged at 13000 rpm for 5 min and supernatant was transferred into vials for analysis.
The minced tissue samples stored at −70° C. were removed and thawed at room temperature for ˜90 min. The samples were kept for shaking at room temperature for 4 h in BioShaker. After 4 h, samples were centrifuged at 13000 rpm for 5 min. To 100 μL of supernatant, 400 μL of extraction solvent was added and vortexed for 2 min. […]

[7] = 25° C., 92% RH, open container, one week
[8] = 40° C., 75% RH, open container, one week
[9] = 60° C., tight container, one week
[10] = Simulated vaginal fluid (pH adjusted with 0.2N NaOH)

SMILES: CCOC(=O)C(C)NP(=O)(COCCn1cnc2c(OC)nc(N)nc21)OCc1ccccc1.O=C(O)C=CC(=O)O (mixture of isomers) [Compound I Monofumarate Pattern 1]
- Solubility ([1]; Acetone, 25° C.): 50 to 100 mg/mL
- Solubility ([1]; Acetone, 50° C.): 125 to 167 mg/mL
- Solubility ([1]; Acetonitrile (ACN), 25° C.): 20 to 25 mg/mL
- Solubility ([1]; Acetonitrile (ACN), 50° C.): 20 to 33 mg/mL
- Solubility ([1]; Dichloromethane (DCM), 25° C.): <2 mg/mL
- Solubility ([1]; Dichloromethane (DCM), 50° C.): <10 mg/mL
- Solubility ([1]; Ethanol (EtOH), 25° C.): >100 mg/mL
- Solubility ([1]; Ethanol (EtOH), 50° C.): 250 to 500 mg/mL
- Solubility ([1]; Ethyl acetate (EA), 25° C.): <2 mg/mL
- Solubility ([1]; Ethyl acetate (EA), 50° C.): <10 mg/mL
- Solubility ([1]; Heptanes, 25° C.): <2 mg/mL
- Solubility ([1]; Heptanes, 50° C.): <10 mg/mL
- Solubility ([1]; Isopropanol (IPA), 25° C.): 50 to 100 mg/mL
- Solubility ([1]; Isopropanol (IPA), 50° C.): 71 to 84 mg/mL
- Solubility ([1]; Isopropyl acetate (IPAc), 25° C.): <2 mg/mL
- Solubility ([1]; Isopropyl acetate (IPAc), 50° C.): <10 mg/mL
- Solubility ([1]; Methanol (MeOH), 25° C.): >100 mg/mL
- Solubility ([1]; Methanol (MeOH), 50° C.): >500 mg/mL
- Solubility ([1]; Methyl ethyl ketone (MEK), 25° C.): 20 to 25 mg/mL
- Solubility ([1]; Methyl ethyl ketone (MEK), 50° C.): 22 to 25 mg/mL
- Solubility ([1]; Methyl t-butyl ether (MTBE), 25° C.): <2 mg/mL
- Solubility ([1]; Methyl t-butyl ether (MTBE), 50° C.): <10 mg/mL
- Solubility ([1]; Tetrahydrofuran (THF), 25° C.): >100 mg/mL
- Solubility ([1]; Tetrahydrofuran (THF), 50° C.): 250 to 500 mg/mL
- Solubility ([1]; Toluene, 25° C.): <2 mg/mL
- Solubility ([1]; Toluene, 50° C.): <10 mg/mL
- Solubility ([1]; Water, 25° C.): 14 to 17 mg/mL
- Solubility ([1]; Water, 50° C.): 22 to 25 mg/mL
- XRPD ([2]; 25° C., 84% RH, open container, 2 days): No change
- HPLC (chemical purity) [2, 7]: 98.2%
- XRPD [2, 7]: No change
- HPLC (chemical purity) [2, 8]: 95.6%
- XRPD [2, 8]: No change
- HPLC (chemical purity) [2, 9]: 95.5%
- XRPD [2, 9]: No change
- HPLC (chemical purity) ([2]; Initial): 98.6%
- Solubility 0.5 hrs [3, 10]: >2 mg/mL
- Solubility 2 hrs [3, 10]: >2 mg/mL
- pH at 2 hrs [3, 10]: (5.39)
- Solubility 0.5 hrs ([3]; Water): >2 mg/mL
- Solubility 2 hrs ([3]; Water): >2 mg/mL
- pH at 2 hrs ([3]; Water): (3.11)
- Solubility 0.5 hrs ([3]; pH 3.0 100 mM citrate buffer): >2 mg/mL
- Solubility 2 hrs ([3]; pH 3.0 100 mM citrate buffer): >2 mg/mL
- pH at 2 hrs ([3]; pH 3.0 100 mM citrate buffer): (3.05)
- Solubility 0.5 hrs ([3]; pH 4.5 50 mM acetate buffer): >2 mg/mL
- Solubility 2 hrs ([3]; pH 4.5 50 mM acetate buffer): >2 mg/mL
- pH at 2 hrs ([3]; pH 4.5 50 mM acetate buffer): (4.36)
- Solubility 0.5 hrs ([3]; pH 6.8 50 mM phosphate buffer): >2 mg/mL
- Solubility 2 hrs ([3]; pH 6.8 50 mM phosphate buffer): >2 mg/mL
- pH at 2 hrs ([3]; pH 6.8 50 mM phosphate buffer): (6.49)
- D. (%) Cycle 1 (Desorption) ([4]; 0% RH, 25° C.): 0.49%
- D. (%) Cycle 2 (Desorption) ([4]; 0% RH, 25° C.): 0.09%
- S. (%) Cycle 1 (Sorption) ([4]; 0% RH, 25° C.): 0.49%
- S. (%) Cycle 2 (Sorption) ([4]; 0% RH, 25° C.): 0.09%
- D. (%) Cycle 1 (Desorption) ([4]; 10% RH, 25° C.): 0.62%
- D. (%) Cycle 2 (Desorption) ([4]; 10% RH, 25° C.): 0.15%
- S. (%) Cycle 1 (Sorption) ([4]; 10% RH, 25° C.): 0.56%
- S. (%) Cycle 2 (Sorption) ([4]; 10% RH, 25° C.): 0.18%
- D. (%) Cycle 1 (Desorption) ([4]; 20% RH, 25° C.): 0.71%
- D. (%) Cycle 2 (Desorption) ([4]; 20% RH, 25° C.): 0.35%
- S. (%) Cycle 1 (Sorption) ([4]; 20% RH, 25° C.): 0.66%
- S. (%) Cycle 2 (Sorption) ([4]; 20% RH, 25° C.): 0.27%
- D. (%) Cycle 1 (Desorption) ([4]; 30% RH, 25° C.): 0.81%
- D. (%) Cycle 2 (Desorption) ([4]; 30% RH, 25° C.): 0.47%
- S. (%) Cycle 1 (Sorption) ([4]; 30% RH, 25° C.): 0.76%
- S. (%) Cycle 2 (Sorption) ([4]; 30% RH, 25° C.): 0.37%
- D. (%) Cycle 1 (Desorption) ([4]; 40% RH, 25° C.): 0.93%
- D. (%) Cycle 2 (Desorption) ([4]; 40% RH, 25° C.): 0.56%
- S. (%) Cycle 1 (Sorption) ([4]; 40% RH, 25° C.): 0.86%
- S. (%) Cycle 2 (Sorption) ([4]; 40% RH, 25° C.): 0.47%
- D. (%) Cycle 2 (Desorption) ([4]; 50% RH, 25° C.): 0.67%
- S. (%) Cycle 1 (Sorption) ([4]; 50% RH, 25° C.): 0.71%
- D. (%) Cycle 2 (Desorption) ([4]; 60% RH, 25° C.): 0.85%
- S. (%) Cycle 1 (Sorption) ([4]; 60% RH, 25° C.): 0.85%
- D. (%) Cycle 2 (Desorption) ([4]; 70% RH, 25° C.): 1.04%
- S. (%) Cycle 1 (Sorption) ([4]; 70% RH, 25° C.): 1.02%
- D. (%) Cycle 2 (Desorption) ([4]; 80% RH, 25° C.): 1.30%
- S. (%) Cycle 1 (Sorption) ([4]; 80% RH, 25° C.): 1.27%
- D. (%) Cycle 2 (Desorption) ([4]; 90% RH, 25° C.): 1.84%
- S. (%) Cycle 1 (Sorption) ([4]; 90% RH, 25° C.): 1.78%
- D. (%) Cycle 2 (Desorption) ([4]; 95% RH, 25° C.): 2.89%
- S. (%) Cycle 1 (Sorption) ([4]; 95% RH, 25° C.): 2.89%
- XRPD after DVS test ([4]; cycle 40-0-95-0-40% RH, 25° C.): No form change,
- Water uptake ([4]; up to 95% RH, DVS 25° C.): about 2.9%
- Polymorphic behavior under compression (XRPD) ([5]; compressed for 5 minutes at 10 MPa): no form change was observed
- Form transformation and crystallinity after grinding (XRPD) ([5]; ground manually with mortar and pestle for 5 min): no form change was observed; crystallinity slightly decreased
- Form transformation after granulation simulation (XRPD) ([5]; wetted with water or ethanol, ground 3 minutes, dried 10 min): neither in ethanol, nor in water form change was observed

SMILES: CCOC(=O)[C@H](C)NP(=O)(COCCn1cnc2c(OC)nc(N)nc21)OCc1ccccc1.O=C(O)/C=C/C(=O)O (mixture of isomers) [Compound I monofumarate, (±)-(2S)-ethyl-2-((((2-(2-amino-6-methoxy-9H-purin-9-yl)-ethoxy)-methyl)-(benzyloxy)-phosphoryl)-amino)-propionate monofumarate]
- Concentration in vaginal tissue ([6]; 0.1% dose, porcine and human tissues (FIG. 116)): 0.04 to 0.085 µg/mL

- Concentration in vaginal tissue ([6]; 3% dose (FIG. 116)): < 0.015 µg/mL
- Tissue penetration ([6]; porcine vaginal tissue, FIG. 116, Compound II 0.1% gel, ABI-1968 1% and 3% formulations): substantially smaller degree
- Tissue concentration ([6]; up to a 3% dose (Bar F and G in FIG. 116)): < 15 ng/mg
SMILES: CCCCCCCCCCCCCCCCCCOCCOP(=O)(O)COCCn1cnc2c(=O)[nH]c(N)nc21 [ABI-1968]
